Measurements as given in patent US20190298664A1, “METHOD AND KIT FOR MYOCARDIAL REPERFUSION, AND METHOD FOR ATTENUATING OR REDUCING MYOCARDIAL REPERFUSION INJURY” (Academia Sinica, priority 2018, published 2019).

Legend:
Assay type in all cases: in vivo, mouse
Conditions in all cases: PVS 5 mg/kg intramyocardial at beginning of ischemia; ischemia 1 h, reperfusion 4 h
I/R mice [1] = test: Serum troponin I measurement in I/R mice
Protocol: (§1) We anesthetized the mouse with 5% isoflurane mixed with room air until loss of sensation of pain and then maintained the mouse in anesthesia status with 2% isoflurane mixed with room air through the whole procedure. The mouse's body temperature was maintained at 37° C. by a heating pad. After the mouse was intubated, we provided artificial ventilation to the mouse with a small animal ventilator. Then the chest cavity was opened at the second intercostal space and homemade chest retractors were utilized to widen the incision. We pulled the pericardium apart carefully and exposed the left anterior descending artery (LAD). A 7-0 silk was put underneath the LAD at the position of the tip of the left auricle, a 6 mm length of PE-10 tube was put on the surface of the LAD, and then a double knot was made to occlude the blood flow of LAD. The success of ligation was confirmed by paling the anterior wall of the LV. For the reperfusion group, the LAD knot would be untied for the purpose of reperfusion after 1 hour of ischemia. For the sham operation group, all procedures were the same except for the knot that occluded the LAD flow. After the successful procedure, we left the silk in situ, closed the chest cavity and weaned the animal from the ventilator.
Before the mouse was sacrificed, blood was drawn from the facial vein. The blood was put in the room temperature for 30 minutes and then centrifuged at 4° C. for 15 minutes at 5000 rpm. After centrifuging, the serum is collected for troponin I measurement with troponin I ELISA kit (KT-469, Kamiya Biomedical Company) according to the manufacture's protocol.

[2] = test system: myocardial protein tyrosine phosphorylation; test: Immunoblotting of heart extracts of I/R mice (anti-pTyr, p-Paxillin, p-p130cas, p-ErbB-2)
Protocol: as §1
Hearts from mice received different treatment were gently homogenized in ice-cold RIPA buffer [250 mM Tris-HCl pH 7.4, 750 mM NaCl, detergent mix (5% NP-40, 2.5% Na-deoxycholate and 0.5% SDS), and 1× protease inhibitor cocktail (EDTA free)] containing phosphatase inhibitors (2 mM Na3VO4, 10 mM NaF, and 10 mM Na2P2O7). The homogenates were centrifuged at 16,100×g at 4° C. for 10 minutes to remove the debris. Protein concentrations were determined by Bradford protein assay. Equal amounts of protein extract from those mice were separated by SDS-PAGE on an 8% or 10% polyacrylamide gel and then transferred to PVDF membrane. Membranes were incubated with indicated primary antibody at 4° C. overnight followed by incubated with secondary antibodies for 1 hour at room temperature. The protein abundance was detected by the signal intensity of each specific band.

I/R mice [3] = test: Myocardial infarct size (Evans blue/TTC staining) in I/R mice
Protocol: as §1
At the end of experiment, the animal was sacrificed. We opened the chest cavity and exposed the heart and aorta. The heart was perfused with 0.9% saline from the apex until the coronary vessels and myocardium turning into pale color. After saline perfusion, the LAD knot was tied again. 1 mL of 1% Evans blue dye was delivered into the heart through the aortic root by retrograde injection. The dye uniformly perfused the whole heart except in the area of the heart previously perfused by the occluded coronary artery (area at risk, AAR). Then the heart was quickly removed, washed in ice-cold 0.9% saline followed by frozen at −20° C. for 20 minutes, then cut into slices of 1 mm with heart matrix. […] The areas stained with Evans blue negative but TTC-positive (AAR), and TTC-negative area (infarct area) were all measured digitally by ImageJ software. […]

## C=CS(=O)(=O)c1ccccc1 [PVS, phenyl vinyl sulfone]
I/R mice [1]
  Release of troponin I into the blood: decreased
[2]
  I/R-caused tyrosine dephosphorylation of myocardial proteins: rebounded
I/R mice [3]
  Area of heart infarction: reduced
